Laboratory results from patent US11382897B2, “Therapeutic combination for treatment of cerebellar ataxia” (The Regents of the University of Michigan, priority 2017, dated 2022).

Legend:
[1] = Water solubility (preparation of drinking water); format: physicochemical
Description: (§1) SKA-31 was dissolved in drinking water at 600 μM for all studies. […] For vehicle treatment, drinking water containing 0.05% β-(hydroxypropyl)-cyclodextrin, NaOH, and sucrose was used. Water bottles were changed twice weekly. Mice were treated with water bottles beginning at 28 days of age and maintained on water bottles for the duration of the experiment.

[2] = test system: ATXN1[82Q] Purkinje neurons; assay: Analysis of intrinsic dendritic excitability (dendritic calcium spikes); format: cell-based, mice
[3] = test system: ATXN1[82Q] Purkinje neurons; assay: Whole-cell patch-clamp recordings: membrane potential and after-hyperpolarization (AHP); format: cell-based, mice
[4] = both, mouse, in vivo
Description: as §1

[5] = test system: non-firing ATXN1[82Q] Purkinje neurons; assay: Cell-attached recordings of Purkinje neuron spiking in acute cerebellar slices; format: cell-based, mice; conditions: 5 weeks of age, chlorzoxazone 50 μM, baclofen 10 μM, SKA-31 10 μM, 1-EBIO 100 μM
SCA patients = conditions: human, in vivo

SMILES	water solubility [1]	dendritic (hyper)excitability: threshold of injected current to elicit dendritic calcium spikes [2]	duration of the AHP ([3]; SKA-31 10 μM, chlorzoxazone 50 μM and baclofen 10 μM)	brain level [4]	plasma level [4]	restoration of repetitive (tonic) spiking in non-firing Purkinje neurons [5]	effect of baclofen on dendritic excitability in the presence of TEA ([2]; TEA 1 mM, baclofen 2 μM)	effect of baclofen on dendritic excitability in the presence of U73122 ([2]; U73122 10 μM in recording pipette (phospholipase C inhibitor), baclofen 2 μM)	effect of baclofen on dendritic excitability in the presence of barium ([2]; barium 500 μM, baclofen 2 μM)	effect of baclofen on dendritic excitability with cesium in the recording pipette ([2]; cesium chloride 140 mM in the recording pipette, baclofen 2 μM)	membrane potential of depolarized Purkinje neurons after the agent [3]	Other comments: tolerability (SCA patients)
Nc1nc2c(ccc3ccccc32)s1 [SKA-31, Naphtho[1,2-d]thiazol-2-ylamine]	not easily water-soluble	does not reduce dendritic hyperexcitability	extended the duration of the AHP	1830 ± 1300 nM	39.39 ± 8.05 nM	–	–	–	–	–	–	–
NCC(CC(=O)O)c1ccc(Cl)cc1 (stereo not drawn) [baclofen, Baclofen]	–	reduce dendritic hyperexcitability	–	377.35 ± 58.50 nM	3060 ± 510 nM	Neither chlorzoxazone alone nor baclofen alone consistently restores spiking	does not block the effect of baclofen	did not prevent the effect of baclofen on dendritic excitability	did not prevent the effect of baclofen	prevents the effect of baclofen	−52 mV	Could not tolerate;
